Experimental data published in ChEMBL document CHEMBL5375988, “AcGlcAs: A Novel P53-Targeting Arsenical with Potent Cellular Uptake and Cancer Cell Selectivity” (J Med Chem, 2023).
Active and inactive are the calls of the source. The calls are words filed in the database; no cut-off is given here.

How the values were obtained:
HL-60 [1] = assay: Upregulation of p21 protein expression in human HL-60 cells overexpressing p53-V272M mutant pretreated for 1 hr followed by culturing in fresh medium for 16 hrs by Western blot analysis; assay type: functional, cell-based
NB-4 [2] = assay: Induction of granulocytic differentiation in human NB4 cells assessed as CD11b positive cells at 9 uM incubated for 1 hrs followed by replacement with fresh culture medium for 48 hrs by flow cytometry analysis relative to control; assay type: functional
HL-60 [3] = assay: Inhibition of colony formation in human HL-60 cells harboring p53-V272M mutant at 0.2 to 3.2 uM pretreated for 1 hr followed by culturing in fresh medium and measured on day 18 by crystal violet staining based assay; assay type: functional, cell-based; details: dose 0.2-3.2 µM
U-937 [4] = assay: Antitumor activity against GFP-tagged human U-937 cells harboring p53 V272M mutant xenografted in M-NSG mouse assessed as delay in spleen swelling at 25 mg/kg, ip administered for 9 days starting from 7 days post inoculation and measured on day 9 by FACS analysis; assay type: functional, organism-based; details: time 9.0 day
[5] = molecular target: PML-RARalpha (Homo sapiens) (UniProt P10276+P29590); assay: Induction of PML/RARalpha degradation in human NB4 cells assessed as downregulation of MPO mRNA expression incubated for 1 hrs followed by replacement with fresh culture medium for 6 hrs by RT-qPCR analysis; assay type: cell-based; details: dose 0.3-3 µM
Sequence of PML-RARalpha (Homo sapiens) (P10276 whole entry, looked up): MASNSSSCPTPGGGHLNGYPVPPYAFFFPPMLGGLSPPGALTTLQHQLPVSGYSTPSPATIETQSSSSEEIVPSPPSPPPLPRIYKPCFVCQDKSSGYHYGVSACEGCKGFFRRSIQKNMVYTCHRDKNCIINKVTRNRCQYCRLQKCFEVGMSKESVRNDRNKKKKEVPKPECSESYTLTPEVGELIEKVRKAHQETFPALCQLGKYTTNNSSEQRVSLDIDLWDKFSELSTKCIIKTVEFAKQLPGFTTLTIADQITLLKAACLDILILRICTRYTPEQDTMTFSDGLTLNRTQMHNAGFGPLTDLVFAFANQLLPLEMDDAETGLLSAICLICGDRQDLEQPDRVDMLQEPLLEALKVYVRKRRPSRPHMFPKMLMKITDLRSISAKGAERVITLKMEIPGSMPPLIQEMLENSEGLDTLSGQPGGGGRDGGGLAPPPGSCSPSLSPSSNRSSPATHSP
Sequence of PML-RARalpha (Homo sapiens) (P29590 whole entry, looked up): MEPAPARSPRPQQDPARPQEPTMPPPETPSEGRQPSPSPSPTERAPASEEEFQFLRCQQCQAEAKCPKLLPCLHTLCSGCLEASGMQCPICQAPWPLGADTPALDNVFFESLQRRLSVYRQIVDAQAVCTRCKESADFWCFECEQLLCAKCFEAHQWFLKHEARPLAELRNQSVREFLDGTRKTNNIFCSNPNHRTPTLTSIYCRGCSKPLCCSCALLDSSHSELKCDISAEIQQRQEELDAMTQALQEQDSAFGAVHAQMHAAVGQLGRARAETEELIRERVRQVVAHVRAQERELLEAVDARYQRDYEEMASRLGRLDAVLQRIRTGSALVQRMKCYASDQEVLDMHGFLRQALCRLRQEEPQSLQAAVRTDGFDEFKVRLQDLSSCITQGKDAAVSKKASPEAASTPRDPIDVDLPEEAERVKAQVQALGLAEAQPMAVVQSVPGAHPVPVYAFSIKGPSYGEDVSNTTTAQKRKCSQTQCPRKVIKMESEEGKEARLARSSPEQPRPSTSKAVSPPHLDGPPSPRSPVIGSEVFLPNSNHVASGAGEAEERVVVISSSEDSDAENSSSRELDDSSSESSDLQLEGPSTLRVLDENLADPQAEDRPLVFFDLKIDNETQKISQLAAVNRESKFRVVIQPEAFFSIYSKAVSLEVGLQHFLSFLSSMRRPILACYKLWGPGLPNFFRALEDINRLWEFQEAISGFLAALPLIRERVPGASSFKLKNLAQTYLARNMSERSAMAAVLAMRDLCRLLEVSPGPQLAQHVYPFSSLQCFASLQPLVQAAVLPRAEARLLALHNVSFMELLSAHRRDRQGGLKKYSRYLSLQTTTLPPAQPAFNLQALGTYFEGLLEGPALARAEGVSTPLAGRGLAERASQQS

U-937 [6] = assay: Upregulation of MDM2 protein expression in human U-937 cells overexpressing p53-V272M mutant at 0.1 to 0.5 uM pretreated for 1 hr followed by culturing in fresh medium for 16 hrs by Western blot analysis; assay type: functional, cell-based; details: dose 0.1-0.5 µM
NB-4 [7] = assay: Induction of granulocytic differentiation in human NB4 cells assessed as increase in CD11b expression at 3 uM incubated for 1 hrs followed by replacement with fresh culture medium for 48 hrs by flow cytometry analysis (reference value: 1.44%); assay type: functional
U-937 [8] = assay: Upregulation of p21 protein expression in human U-937 cells overexpressing p53-V272M mutant at 0.1 to 0.5 uM pretreated for 1 hr followed by culturing in fresh medium for 16 hrs by Western blot analysis; assay type: functional, cell-based; details: dose 0.1-0.5 µM
[9] = system: Cellular tumor antigen p53 (Homo sapiens), P04637 [V272M]; assay: Restoration of p53-V272M mutant transcriptional activity on PUMA promoter in human NCI-H1299 cells at 2.5 to 10 uM pretreated with chlorpromazine for 30 mins followed by compound addition for 10 mins and further incubation in fresh medium for 24 hrs by firefly/renilla based luciferase reporter assay; assay type: cell-based; details: dose 2.5-10 µM
NB-4 [10] = assay: Induction of apoptosis in human NB4 cells assessed as necrotic cells at 3 uM preincubated for 1 hrs followed by replacement with fresh culture medium and measured after 24 hrs by Annexin V-FITC/7AAD staining based flow cytometry assay (reference value: 0.16%); assay type: functional
HepG2 = assay: Impairment of thiol-mediated drug uptake in human HepG2 cells assessed as reduction in arsenic level at 10 uM pretreated with N-ethylmaleimide for 30 mins followed by compound addition and measured after 10 mins by ICP-MS analysis relative to control; assay type: ADME, cell-based; set-up: scale not given: the % may be the effect or the level left; details: hepg2, 10 min
U-937 [11] = assay: Induction of extrinsic apoptosis in human U-937 cells overexpressing p53-V272M mutant assessed as upregulation of DR5 gene expression by RT-qPCR analysis; assay type: functional, cell-based

CC(=O)OC[C@H]1O[C@@H](S[As]2SCCS2)[C@H](OC(C)=O)[C@@H](OC(C)=O)[C@@H]1OC(C)=O
Activity (HL-60 [1]): Active | Activity (NB-4 [2]): 20.9% | inhibition (HL-60 [3]): Active | Activity (U-937 [4]): Active | Activity [5]: Dose-Dependent Effect | Activity (U-937 [6]): Active | Activity (NB-4 [7]): 32.9% | Activity (U-937 [8]): Active | Activity [9]: inactive | Activity (NB-4 [10]): 0.27% | Activity (HepG2): ~ 90% | Activity (U-937 [11]): Active
